Where two headings read alike, the source gives them in different places.
Tests used:
WT virus (NL4-3) = assay: microbe, parasite or virus in culture; assay type: cell-based, HIV-1; details: Human immunodeficiency virus 1, NL43, CEM-SS, read-out: EC50
Description: Evaluation of these compounds for the inhibition of HIV-1 was determined as the fifty percent cell culture inhibitory concentration (CIC50) in CEMSS cell culture with WT virus (NL4-3).
(§1) In this Example, the antiviral and cellular toxicity of NNRTIs was investigated, using the cytopathic cell killing assay described by Yang (Yang et al., "Characteristics of a Group of Non-nucleoside Reverse Transcriptase Inhibitors with Structural Diversity and Potent Anti-Human Immunodeficiency Virus Activity," Leukemia 9:S75-S85 [1995]). Briefly, in this method cells (e.g., the CEM-SS cell line, available from the NIAID AIDS Research and Reference Program [ARRRP]) were seeded at a density of 5 x 10^3 cells/well, into the wells of a 96-well microtiter plate. The cells were then infected with HIV virus (either mutant or WT), at a multiplicity of infection (MOI) previously determined to provide complete cell killing by 6 days of culture post-infection (e.g., MOI of 0.01-0.05). Each of the HIV isolates was pre-titered to induce equivalent levels of infection based on cell killing or virus production, prior to their use in these assays. A range of test compound concentrations was added to the wells in triplicate (e.g., serial half-log dilutions) to evaluate inhibition of HIV infection. Controls for each assay included drug controls (drug colorimetric control wells), drug cytotoxicity control wells (cells with drug), virus control wells (cells with virus), and cell viability controls (cells only). Positive control drugs (e.g., AZT and ddC) were also run in parallel.
(§2) After six days of incubation at 37°C, cell viability was determined spectrophotometrically at 450 nm for each well, using the metabolic reduction of XTT to a soluble colored formazan. (See, Gartner and Popovic, "Virus Isolation and Production, in Aldovini and Walker (eds.), Techniques in HIV Research, Stockton Press, NY, pp. […] [1991]; and Nara and Fischinger, "Quantitative Infectivity Assay for HIV-1 and HIV-2," Nature 332:469-470 [1988]).
(§3) The in vitro therapeutic index (TI50) was defined as the fold-difference between the EC50 and IC50. The results for the various compounds are included in Figures 8 and 19.

NL4-3 (WT) = assay: Cytopathic cell killing assay, cross-resistance profile, infected MT-4 cells; assay type: cell-based, HIV-1
Description: (§4) The various HIV isolates tested in the Figures are those corresponding to wild-type virus (NL4-3) and the other strains listed by their RT mutations. The three 4xAZT isolates included in the Figures represent AZT drug-resistant variants. For example, the 4xAZT/L100I isolate has five mutations: four mutations confer increased resistance to AZT, and the other mutation is located within the NNRTI binding pocket. TZB and nevir. (nevirapine) are two well-known NNRTIs, included in this experiment for comparison purposes. […]
as §1, §2, §3

HIV-1 variant Y188H = assay: as above; assay type: cell-based; details: Human immunodeficiency virus 1, MT4
Description: as §4, §1, §2, §3

HIV-1 variant M184l = assay: as above; assay type: cell-based; details: Human immunodeficiency virus 1, MT4
Description: as §4, §1, §2, §3

HIV-1 variant K103N = assay: as above; assay type: cell-based; details: isolate K103N
Description: as §4, §1, §2, §3

HIV-1 variant Y181C = assay: as above; assay type: cell-based; details: Human immunodeficiency virus 1, MT4, Table 10 (values in µM); isolate Y181C
Description: as §4, §1, §2, §3

HIV-1 variant K101E = assay: as above; assay type: cell-based; details: isolate K101E
Description: as §4, §1, §2, §3

HIV-1 variant L100I = assay: as above; assay type: cell-based
Description: as §4, §1, §2, §3

HIV-1 variant V108I = assay: as above; assay type: cell-based
Description: as §4, §1, §2, §3

HIV-1 WT RT = target: T1, HIV-1 WT RT (Human immunodeficiency virus type 1 group M subtype B, UniProt P03366); assay: biochemical; details: for IC50: read-out: IC50; for inhibition at 1 µM: WT HIV-1 RT, 1 µM drug
T1 construct: purified RT protein (0.015 mg/mL) was incubated in a 100 µL reaction mixture

HIV-1 variant V106A = assay: Cytopathic cell killing assay, cross-resistance profile, infected MT-4 cells; assay type: cell-based; details: Human immunodeficiency virus 1, MT4, Table 8; isolate V 106A
Description: as §4, §1, §2, §3

HIV-1 variant A98G = assay: as above; assay type: cell-based; details: Human immunodeficiency virus 1, MT4, Table 8; isolate A9SG
Description: as §4, §1, §2, §3

HIV-1 variant L74V = assay: as above; assay type: cell-based; details: Human immunodeficiency virus 1, MT4, Table 8; isolate 1.74V
Description: as §4, §1, §2, §3

HIV-1 variant Y188C = assay: as above; assay type: cell-based
Description: as §4, §1, §2, §3

HIV-1 variant V179D = assay: as above; assay type: cell-based; details: Human immunodeficiency virus 1, MT4, Table 8; isolate V179D
Description: as §4, §1, §2, §3

[1] = test system: HIV-1 isolate 4xAZT/Y181C; assay: as above; assay type: cell-based; details: Human immunodeficiency virus 1, MT4, Table 8; isolate 4XAZT /Y181C
Description: as §4, §1, §2, §3

HIV-1 isolate 4xAZT = assay: as above; assay type: cell-based; details: Human immunodeficiency virus 1, MT4, Table 8; isolate 4XAZT
Description: as §4, §1, §2, §3

[2] = test system: HIV-1 isolate 4xAZT/L100I; assay: as above; assay type: cell-based; details: Human immunodeficiency virus 1, MT4, Table 8; isolate 4XA7T L 1001
Description: The various HIV isolates tested in the Figures are those corresponding to wild-type virus (NL4-3) and the other strains listed by their RT mutations. The three 4xAZT isolates included in the Figures represent AZT drug-resistant variants. […]
as §1, with “Briefly,” for “In this Example, the antiviral and cellular toxicity of NNRTIs was investigated, using the cytopathic cell killing assay described by Yang (Yang et al., "Characteristics of a Group of Non-nucleoside Reverse Transcriptase Inhibitors with Structural Diversity and Potent Anti-Human Immunodeficiency Virus Activity," Leukemia 9:S75-S85 [1995]). Briefly,”
as §2
The in vitro therapeutic index (TI50) was defined as the fold-difference between the EC50 and IC50.

[3] = Table 7, concentration reducing cell killing or virus production by 50%, HIV-1 WT
[4] = Human immunodeficiency virus 1, NL43, MT4, Table 10 (values in µM), isolate NL4-3 (WT)
[5] = Human immunodeficiency virus 1, MT4, Table 10 (values in µM)
[6] = Human immunodeficiency virus 1, MT4, Table 10 (values in µM), isolate L1001
[7] = Human immunodeficiency virus 1, MT4, Table 10 (values in µM), isolate V108l
[8] = Table 7, read-out: %inhibn (1µM)
[9] = Human immunodeficiency virus 1, MT4, Table 8

With `O=[N+]([O-])c1cccc2c1nc(-c1c(F)cccc1F)n2Cc1c(F)cccc1F` [compound 48, 1-(2,6-difluorobenzyl)-2-(2,6-difluorophenyl)-4-nitrobenzimidazole] as the molecule, how does the EC50 (WT virus (NL4-3); [3]) read?
The EC50 was 2.4 µM.

And the EC50 (NL4-3 (WT); [4])?
The EC50 was 3.13 µM.

And the EC50 (HIV-1 variant Y188H)?
The EC50 was over 50 µM.

What about the EC50 (HIV-1 variant M184l) of the same molecule?
Its EC50 is 3.69 µM.

And the EC50 (HIV-1 variant K103N; [5])?
Its EC50 is over 50 µM.

What about the EC50 (HIV-1 variant Y181C) of the same molecule?
Its EC50 is over 50 µM.

What about the EC50 (HIV-1 variant K101E; [5]) of the same molecule?
The EC50 was over 50 µM.

What about the EC50 (HIV-1 variant L100I; [6]) of the same molecule?
Its EC50 is 0.83 µM.

What about the EC50 (HIV-1 variant V108I; [7]) of the same molecule?
Its EC50 is over 50 µM.

And the IC50 (HIV-1 WT RT; Table 7, HIV-1 WT RT)?
The IC50 was 1.88 µM.

And the inhibition at 1 µM (HIV-1 WT RT; [8])?
Its inhibition at 1 µM is 51%.

What does the source list for `Fc1cccc(F)c1Cn1c(-c2c(F)cccc2F)nc2c(Cl)cccc21` [compound 55, 4-chloro-1-(2,6-difluorobenzyl)-2-(2,6-difluorophenyl)benzimidazole]?
EC50 (WT virus (NL4-3); [3]): 0.44 µM; EC50 (WT virus (NL4-3); Table 11, CEMSS/NL4-3, NRVC = reduction in viral CPE not seen (footnote)): 0.44 µM; EC50 (NL4-3 (WT); Human immunodeficiency virus 1, NL43, MT4, Table 8, isolate N1.43): 0.1 µM; EC50 (NL4-3 (WT); [4]): 0.5 µM; EC50 (HIV-1 variant V106A): > 10 µM; EC50 (HIV-1 variant K103N; [9]): > 20 µM; EC50 (HIV-1 variant K103N; [5]): 10.2 µM; EC50 (HIV-1 variant Y181C): 8.4 µM; EC50 (HIV-1 variant A98G): 5 µM; EC50 (HIV-1 variant L74V): 0.5 µM; EC50 (HIV-1 variant Y188C; Human immunodeficiency virus 1, MT4, Table 8, isolate Y 188C): 5.4 µM; EC50 (HIV-1 variant Y188C; Human immunodeficiency virus 1, MT4, Table 10 (values in µM), isolate Y188C): 3.4 µM; EC50 (HIV-1 variant V179D): 0.8 µM; EC50 [1]: > 20 µM; EC50 (HIV-1 isolate 4xAZT): 0.2 µM; EC50 (HIV-1 variant K101E; [9]): > 20 µM; EC50 (HIV-1 variant K101E; [5]): > 20 µM; EC50 (HIV-1 variant L100I; Human immunodeficiency virus 1, MT4, Table 8, isolate 1.1001): 0.2 µM; EC50 (HIV-1 variant L100I; [6]): 0.3 µM; EC50 (HIV-1 variant V108I; Human immunodeficiency virus 1, MT4, Table 8, isolate V1081): 3.6 µM; EC50 (HIV-1 variant V108I; [7]): 3.2 µM; inhibition at 1 µM (HIV-1 WT RT; Table 6, average of two experiments done in triplicates, read-out: %Inhibn (1µM)): 75%; IC50 (HIV-1 WT RT; Table 7, HIV-1 WT RT): 2.63 µM; inhibition at 1 µM (HIV-1 WT RT; [8]): 75%; IC50 (HIV-1 WT RT; Table 11, WT RT): 2.63 µM; EC50 [2]: 0.2 µM

Reference: patent EP1210336B1, “SUBSTITUTED BENZIMIDAZOLES AS NON-NUCLEOSIDE INHIBITORS OF REVERSE TRANSCRIPTASE” (THE UNITED STATES OF AMERICA, as represented by the …, priority 1999, dated 2001)
